According to ChEMBL document CHEMBL4616725, “Global PROTAC Toolbox for Degrading BCR-ABL Overcomes Drug-Resistant Mutants and Adverse Effects” (J Med Chem, 2020):
The source made the active and inactive calls. No cut-off for these calls is given here.

Legend:
[1] = molecular target: Protein cereblon/Tyrosine-protein kinase ABL1/Breakpoint cluster region protein (Homo sapiens, UniProt P00519+P11274+Q96SW2); test: Protac activity at Cereblon/BCR/ABL in human K562 cells assessed as induction of BCR-ABL degradation incubated for 32 to 48 hrs by Western blot analysis; type: cell-based
[2] = molecular target: Protein cereblon/Tyrosine-protein kinase ABL1/Breakpoint cluster region protein (Homo sapiens, UniProt P00519+P11274+Q96SW2, T315I); type: cell-based, BaF3
BaF3 = test: Antiproliferative activity against wild type mouse BA/F3 cells incubated for 3 days by CCK8 assay; type: cell-based; settings: BaF3, 72 h
K562 = test: Antiproliferative activity against human K562 cells incubated for 3 days by CCK8 assay; type: functional, cell-based; settings: K562, 72 h
[3] = test system: Protein cereblon/Tyrosine-protein kinase ABL1/Breakpoint cluster region protein (Homo sapiens), P00519+P11274+Q96SW2 [T315I]; test: Protac activity at Cereblon/BCR/ABL T315I mutant (unknown origin) expressed in mouse BaF3 cells assessed as reduction in BCR-ABL T315I mutant protein levels at 3 to 30000 nM incubated for 32 hrs by Western blot analysis; type: cell-based
[4] = test system: Protein cereblon/Tyrosine-protein kinase ABL1/Breakpoint cluster region protein (Homo sapiens), P00519+P11274+Q96SW2 [T315I]; test: Protac activity at Cereblon/BCR/ABL T315I mutant (unknown origin) expressed in mouse BaF3 cells assessed as reduction in BCR-ABL T315I mutant protein levels at 1 uM incubated for 48 hrs by Western blot analysis; type: cell-based
[5] = test system: Protein cereblon/Tyrosine-protein kinase ABL1/Breakpoint cluster region protein (Homo sapiens), P00519+P11274+Q96SW2 [T315I]; test: Protac activity at Cereblon/BCR/ABL T315I mutant (unknown origin) expressed in mouse BaF3 cells assessed as reduction in BCR-ABL T315I mutant protein levels at 3 to 30000 nM incubated for 48 hrs by Western blot analysis; type: cell-based
HUVEC [6] = test: Toxicity in HUVEC assessed as inhibition of tube formation at 200 nM incubated for 20 hrs by optical microscopy based matrigel-based assay; type: cell-based; settings: human, 0.2 µM
HUVEC [7] = test: Antiproliferative activity against human HUVEC incubated for 3 days by CCK8 assay; type: cell-based; settings: 72 h
H9c2 = test: Antiproliferative activity against rat H9C2 cells incubated for 3 days by CCK8 assay; type: cell-based; settings: H9c2, 72 h

| Compound | DC50 [1] [nM] | EC50 [2] [nM] | other results |
| --- | --- | --- | --- |
| O=C1CCC(N2C(=O)c3cccc(NCCOCCOCCOCCn4cc(CCCC(=O)N[C@@H]5CCN(c6ncc(C(=O)Nc7ccc(OC(F)(F)Cl)cc7)cc6-c6cc[nH]n6)C5)nn4)c3C2=O)C(=O)N1 (stereo not given in full) | 200 | 1020 | EC50 (BaF3): > 10000 nM; IC50 (K562): 121 nM; Activity [3]: Active |
| Cc1ccc(NC(=O)c2ccc(CN3CCN(C(=O)CCCc4cn(CCNc5cccc6c5C(=O)N(C5CCC(=O)NC5=O)C6=O)nn4)CC3)cc2)cc1Nc1nccc(-c2cccnc2)n1 (stereo not given) | > 10000 | – | – |
| O=C1CCC(N2C(=O)c3cccc(NCCOCCn4cc(CCCC(=O)N[C@@H]5CCN(c6ncc(C(=O)Nc7ccc(OC(F)(F)Cl)cc7)cc6-c6cc[nH]n6)C5)nn4)c3C2=O)C(=O)N1 (stereo not given in full) | 400 | – | – |
| O=C1CCC(N2C(=O)c3cccc(NCCOCCOCCn4cc(CCCC(=O)N[C@@H]5CCN(c6ncc(C(=O)Nc7ccc(OC(F)(F)Cl)cc7)cc6-c6cc[nH]n6)C5)nn4)c3C2=O)C(=O)N1 (stereo not given in full) | 300 | – | – |
| C#CCCCC(=O)N1CCN(c2cc(Nc3ncc(/C=C/c4ccc(F)c(F)c4)s3)nc(C)n2)CC1 | – | 570 | – |
| C#CCCCC(=O)N1CCN(c2cc(Nc3ncc(/C=C/c4cccc(F)c4)s3)nc(C)n2)CC1 | – | 770 | – |
| Cc1ccc(C(=O)Nc2ccc(CN3CCN(C(=O)CCCc4cn(CCOCCOCCOCCOCCNc5cccc6c5C(=O)N(C5CCC(=O)NC5=O)C6=O)nn4)CC3)c(C(F)(F)F)c2)cc1C#Cc1cnc2cccnn12 (stereo not given) | 70 | – | – |
| Cc1ccc(NC(=O)c2ccc(CN3CCN(C(=O)CCCc4cn(CCOCCOCCOCCNc5cccc6c5C(=O)N(C5CCC(=O)NC5=O)C6=O)nn4)CC3)cc2)cc1Nc1nccc(-c2cccnc2)n1 (stereo not given) | > 10000 | – | – |
| C#CCCCC(=O)N1CCN(c2cc(Nc3ncc(/C=C/c4ccc(F)cc4)s3)nc(C)n2)CC1 | – | 3200 | – |
| Cc1ccc(C(=O)Nc2ccc(CN3CCN(C(=O)CCCc4cn(CCOCCOCCNc5cccc6c5C(=O)N(C5CCC(=O)NC5=O)C6=O)nn4)CC3)c(C(F)(F)F)c2)cc1C#Cc1cnc2cccnn12 (stereo not given) | 70 | – | – |
| Cc1cccc(/C=C/c2cnc(Nc3cc(N4CCN(C(=O)CCCc5cn(CCOCCOCCOCCOCCNc6cccc7c6C(=O)N(C6CCC(=O)NC6=O)C7=O)nn5)CC4)nc(C)n3)s2)c1 (stereo not given) | – | 6100 | Activity [4]: Active; EC50 (BaF3): > 10000 nM; Activity [5]: Active |
| Cc1ccc(NC(=O)c2ccc(CN3CCN(C)CC3)cc2)cc1Nc1nccc(-c2cccnc2)n1 [IMATINIB] | – | – | IC50 (K562): 76.2 nM |
| Cc1ccc(NC(=O)c2ccc(CN3CCN(C(=O)CCCc4cn(CCOCCOCCNc5cccc6c5C(=O)N(C5CCC(=O)NC5=O)C6=O)nn4)CC3)cc2)cc1Nc1nccc(-c2cccnc2)n1 (stereo not given) | > 10000 | – | – |
| Cc1ccc(C(=O)Nc2ccc(CN3CCN(C)CC3)c(C(F)(F)F)c2)cc1C#Cc1cnc2cccnn12 [PONATINIB] | – | – | Activity (HUVEC [6]): Toxic; EC50 (HUVEC [7]): 515 nM; EC50 (BaF3): 438 nM; IC50 (K562): 0.3 nM; EC50 (H9c2): 379 nM |
| Cc1nc(Nc2ncc(C(=O)Nc3c(C)cccc3Cl)s2)cc(N2CCN(CCO)CC2)n1 [DASATINIB] | – | – | EC50 (BaF3): > 10000 nM; IC50 (K562): 0.19 nM |
| Cc1nc(Nc2ncc(C(=O)Nc3c(C)cccc3Cl)s2)cc(N2CCN(C(=O)CCCc3cn(CCOCCNc4cccc5c4C(=O)N(C4CCC(=O)NC4=O)C5=O)nn3)CC2)n1 (stereo not given) | 56 | – | – |

| Compound | DC50 [1] [nM] | EC50 [2] [nM] | other results |
| --- | --- | --- | --- |
| O=C1CCC(N2C(=O)c3cccc(NCCOCCOCCOCCOCCn4cc(CCCC(=O)N[C@@H]5CCN(c6ncc(C(=O)Nc7ccc(OC(F)(F)Cl)cc7)cc6-c6cc[nH]n6)C5)nn4)c3C2=O)C(=O)N1 (stereo not given in full) | 500 | – | – |
| Cc1ccc(C(=O)Nc2ccc(CN3CCN(C(=O)CCCc4cn(CCOCCNc5cccc6c5C(=O)N(C5CCC(=O)NC5=O)C6=O)nn4)CC3)c(C(F)(F)F)c2)cc1C#Cc1cnc2cccnn12 (stereo not given) | 70 | – | – |
| Cc1nc(Nc2ncc(C(=O)Nc3c(C)cccc3Cl)s2)cc(N2CCN(CCCCCCOCCOCCOCCCCCC(=O)Nc3cccc4c3C(=O)N(C3CCC(=O)NC3=O)C4=O)CC2)n1 (stereo not given) | – | – | EC50 (BaF3): > 10000 nM; IC50 (K562): 8 nM; Activity [5]: inactive |
| C#CCCCC(=O)N1CCN(c2cc(Nc3ncc(/C=C/c4cc(F)cc(F)c4)s3)nc(C)n2)CC1 | – | 1500 | – |
| Cc1nc(Nc2ncc(C(=O)Nc3c(C)cccc3Cl)s2)cc(N2CCN(C(=O)CCCc3cn(CCOCCOCCOCCNc4cccc5c4C(=O)N(C4CCC(=O)NC4=O)C5=O)nn3)CC2)n1 (stereo not given) | 56 | – | – |
| Cc1ccc(NC(=O)c2ccc(CN3CCN(C(=O)CCCc4cn(CCOCCOCCOCCOCCNc5cccc6c5C(=O)N(C5CCC(=O)NC5=O)C6=O)nn4)CC3)cc2)cc1Nc1nccc(-c2cccnc2)n1 (stereo not given) | > 10000 | – | – |
| C#CCCCC(=O)N1CCN(c2cc(Nc3ncc(/C=C/c4cccc(C)c4)s3)nc(C)n2)CC1 | – | 450 | – |
| C#CCCCC(=O)N1CCN(c2cc(Nc3ncc(/C=C/c4cccc(O)c4)s3)nc(C)n2)CC1 | – | 1300 | – |
| C#CCCCC(=O)N1CCN(c2cc(Nc3ncc(C)s3)nc(C)n2)CC1 | – | > 10000 | – |
| Cc1nc(Nc2ncc(C(=O)Nc3c(C)cccc3Cl)s2)cc(N2CCN(C(=O)CCCc3cn(CCOCCOCCOCCOCCNc4cccc5c4C(=O)N(C4CCC(=O)NC4=O)C5=O)nn3)CC2)n1 (stereo not given) | 10 | > 10000 | EC50 (BaF3): > 10000 nM; IC50 (K562): 9.2 nM; Activity [5]: inactive |
| Cc1nc(Nc2ncc(C(=O)Nc3c(C)cccc3Cl)s2)cc(N2CCN(C(=O)CCCc3cn(CCOCCOCCNc4cccc5c4C(=O)N(C4CCC(=O)NC4=O)C5=O)nn3)CC2)n1 (stereo not given) | 20 | – | – |
| Cc1nc(Nc2ncc(C(=O)Nc3c(C)cccc3Cl)s2)cc(N2CCN(C(=O)CCCc3cn(CCNc4cccc5c4C(=O)N(C4CCC(=O)NC4=O)C5=O)nn3)CC2)n1 (stereo not given) | 56 | – | – |
| O=C1CCC(N2C(=O)c3cccc(NCCn4cc(CCCC(=O)N[C@@H]5CCN(c6ncc(C(=O)Nc7ccc(OC(F)(F)Cl)cc7)cc6-c6cc[nH]n6)C5)nn4)c3C2=O)C(=O)N1 (stereo not given in full) | > 625 | – | – |
| Cc1ccc(NC(=O)c2ccc(CN3CCN(C(=O)CCCc4cn(CCOCCNc5cccc6c5C(=O)N(C5CCC(=O)NC5=O)C6=O)nn4)CC3)cc2)cc1Nc1nccc(-c2cccnc2)n1 (stereo not given) | > 10000 | – | – |
| C#CCCCC(=O)N1CCN(c2cc(Nc3ncc(/C=C/c4cccc(OC)c4)s3)nc(C)n2)CC1 | – | > 10000 | – |
| Cc1ccc(C(=O)Nc2ccc(CN3CCN(C(=O)CCCc4cn(CCNc5cccc6c5C(=O)N(C5CCC(=O)NC5=O)C6=O)nn4)CC3)c(C(F)(F)F)c2)cc1C#Cc1cnc2cccnn12 (stereo not given) | 625 | – | – |
